Like-named read-outs stand apart in the source and are kept apart here.
Columns and labels:
TRAF6/Uev1A/Ubc13 = molecular target: T1, TRAF6/Uev1A/Ubc13 (Homo sapiens, UniProt Q9Y4K3); experiment: TRAF6/Uev1A/Ubc13 plate-based ubiquitin ligase assay; format: biochemical
T1 sequence (Q9Y4K3 1-522): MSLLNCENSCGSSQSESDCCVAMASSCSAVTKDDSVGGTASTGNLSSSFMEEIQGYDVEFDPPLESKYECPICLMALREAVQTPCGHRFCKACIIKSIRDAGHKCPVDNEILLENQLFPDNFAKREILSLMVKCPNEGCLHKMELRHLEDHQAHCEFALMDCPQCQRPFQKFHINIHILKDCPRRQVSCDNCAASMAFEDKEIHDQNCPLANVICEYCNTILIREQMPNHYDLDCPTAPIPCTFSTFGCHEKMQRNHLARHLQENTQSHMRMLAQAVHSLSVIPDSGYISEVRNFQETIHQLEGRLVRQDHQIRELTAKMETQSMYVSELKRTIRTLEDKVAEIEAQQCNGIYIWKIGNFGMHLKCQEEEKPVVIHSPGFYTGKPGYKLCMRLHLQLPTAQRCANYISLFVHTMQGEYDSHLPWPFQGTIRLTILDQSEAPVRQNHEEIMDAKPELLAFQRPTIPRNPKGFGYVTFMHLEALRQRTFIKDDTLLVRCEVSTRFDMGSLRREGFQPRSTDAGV
Procedure, shortened: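 Ligase activity was read as luminescence from anti-Flag/HRP detection of Flag-ubiquitin bound to casein-blocked Ni-plates alongside His-ubiquitin after a 1 h room-temperature reaction. Buffer: 62.5 mM Tris pH 7.5, 6.25 mM MgCl2, 1.0 mM DTT, 2 μM ATP; E1, Uev1a/Ubc13 and TRAF6 added last to start. IC50s derived across compound concentrations.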

A549 cells = experiment: Cell proliferation PAD assay, A549; format: cell-based; conditions: Homo sapiens, 48 hours
Procedure, shortened: (§1)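 Cells plated at 2,000/well; compounds added 24 h later as 6.3-fold dilutions from a 10 mM master stock, diluted 500-fold into wells, in duplicate. After 48 h at 37 °C, 5% CO2, cells were formamide-fixed, DAPI-stained and imaged to count live, apoptotic and dead cells.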

H1299 cells = experiment: Cell proliferation PAD assay, H1299; format: cell-based; conditions: Homo sapiens, 48 hours
Procedure, shortened: as §1

[1] = NCI-H1299, 6pt, read-out: H1299 6pt
[2] = NCI-H1299, 3pt, read-out: H1299 3pt

| Structure (SMILES) | IC50 (TRAF6/Uev1A/Ubc13) [µM] | IC50 (A549 cells; 6pt, read-out: A549 6pt) [µM] | IC50 (H1299 cells; [1]) [µM] | IC50 (A549 cells; 3pt, read-out: A549 3pt) [µM] | IC50 (H1299 cells; [2]) [µM] |
| --- | --- | --- | --- | --- | --- |
| O=[N+]([O-])c1ccc(Sc2cccc3cccnc23)c2nonc12 [compound 5, 8-[(7-Nitro-2,1,3-benzoxadiazol-4-yl)thio]quinoline] | 1 to 20 | < 1 | < 1 | – | – |
| O=[N+]([O-])c1ccc(Oc2c(Cl)cc(S(=O)(=O)Nc3cccc4nsnc34)cc2Cl)c(Cl)c1 [compound 73, N-2,1,3-benzothiadiazol-4-yl-3,5-dichloro-4-(2-chloro-4-nitrophenoxy)benzenesulfonamide] | 1 to 20 | 1 to 20 | 1 to 20 | ≥ 20 | ≥ 20 |
| O=S(=O)(Nc1cccc2nonc12)c1ccc(Oc2ncc(C(F)(F)F)cc2Cl)cc1 [compound 78, N-2,1,3-benzoxadiazol-4-yl-4-{[3-chloro-5-(trifluoromethyl)pyridin-2-yl]oxy}benzenesulfonamide] | 1 to 20 | – | – | – | – |
| O=[N+]([O-])c1ccc(N2CCN(c3cc(C(F)(F)F)ccn3)CC2)c2nonc12 [compound 90, 4-nitro-7-{4-[4-(trifluoromethyl)pyridin-2-yl]piperazin-1-yl}-2,1,3-benzoxadiazole] | 1 to 20 | 1 to 20 | 1 to 20 | ≥ 20 | ≥ 20 |
| O=S(=O)(Nc1cccc2nsnc12)c1ccc(Oc2ccccc2)cc1 [compound 94, N-2,1,3-benzothiadiazol-4-yl-4-phenoxybenzenesulfonamide] | 1 to 20 | – | – | – | – |
| O=[N+]([O-])c1ccc(N2CCN(c3ncccn3)CC2)c2nonc12 [compound 109, 4-nitro-7-(1,3-(pyrimidin-2-yl)piperazin-1-yl)-2,1,3-benzoxadiazole] | 1 to 20 | – | – | ≥ 20 | ≥ 20 |
| O=[N+]([O-])c1ccc(Oc2ccc(S(=O)(=O)Nc3cccc4nonc34)cc2Cl)c(C(F)(F)F)c1 [compound 114, N-2,1,3-benzoxadiazol-4-yl-3-chloro-4-[4-nitro-2-(trifluoromethyl)phenoxy]benzenesulfonamide] | 1 to 20 | – | – | – | – |
| N#Cc1ccc(N2CCN(c3ccc([N+](=O)[O-])c4nonc34)CC2)nc1 [compound 121, 6-[4-(7-nitro-2,1,3-benzoxadiazol-4-yl)piperazin-1-yl]nicotinonitrile] | 1 to 20 | – | – | ≥ 20 | ≥ 20 |
| Cc1ccc(N2CCN(c3ccc([N+](=O)[O-])c4nonc34)CC2)cc1C [compound 140, 4-[4-(3,4-dimethylphenyl)piperazin-1-yl]-7-nitro-2,1,3-benzoxadiazole] | 1 to 20 | – | – | ≥ 20 | ≥ 20 |
| N#CC1(c2ccccc2)CCN(c2ccc([N+](=O)[O-])c3nonc23)CC1 [compound 141, 1-(7-nitro-2,1,3-benzoxadiazol-4-yl)-4-phenylpiperidine-4-carbonitrile] | 1 to 20 | – | – | ≥ 20 | ≥ 20 |
| O=C(c1ccc(F)cc1)C1CCN(c2ccc([N+](=O)[O-])c3nonc23)CC1 [compound 142, (4-fluorophenyl)[1-(7-nitro-2,1,3-benzoxadiazol-4-yl)piperidin-4-yl]methanone] | 1 to 20 | – | – | ≥ 20 | ≥ 20 |
| CC1CC(C)CN(c2ccc([N+](=O)[O-])c3nonc23)C1 (centres unmarked) [compound 144, 4-(3,5-dimethylpiperidin-1-yl)-7-nitro-2,1,3-benzoxadiazole] | 1 to 20 | – | – | – | ≥ 20 |
| Cc1ccc(Cl)cc1N1CCN(c2ccc([N+](=O)[O-])c3nonc23)CC1 [compound 145, 4-[4-(5-chloro-2-methylphenyl)piperazin-1-yl]-7-nitro-2,1,3-benzoxadiazole] | 1 to 20 | – | – | – | ≥ 20 |
| O=[N+]([O-])c1ccc(N2CCN(c3ccc(O)cc3)CC2)c2nonc12 [compound 146, 4-[4-(7-nitro-2,1,3-benzoxadiazol-4-yl)piperazin-1-yl]phenol] | 1 to 20 | – | – | 1 to 20 | 1 to 20 |
| O=[N+]([O-])c1ccc(N2CCN(c3ncccc3C(F)(F)F)CC2)c2nonc12 [compound 148, 4-nitro-7-{4-[3-(trifluoromethyl)pyridin-2-yl]piperazin-1-yl}-2,1,3-benzoxadiazole] | 1 to 20 | – | – | ≥ 20 | ≥ 20 |
| O=[N+]([O-])c1ccc(SCCO)c2nonc12 [compound 150, 2-[(7-nitro-2,1,3-benzoxadiazol-4-yl)thio]ethanol] | ≥ 20 | < 1 | < 1 | < 1 | 1 to 20 |
| CCOC(=O)c1cc(C#N)c(C)nc1N1CCN(c2ccc([N+](=O)[O-])c3nonc23)CC1 [compound 153, ethyl 5-cyano-6-methyl-2-[4-(7-nitro-2,1,3-benzoxadiazol-4-yl)piperazin-1-yl]nicotinate] | 1 to 20 | – | – | ≥ 20 | ≥ 20 |
| O=[N+]([O-])c1ccc(Sc2nc3ccccc3s2)c2nonc12 [compound 158, 4-(1,3-benzothiazol-2-ylthio)-7-nitro-2,1,3-benzoxadiazole] | 1 to 20 | – | – | – | – |
| O=[N+]([O-])c1ccc(N2CCC(O)(c3ccc(Cl)cc3)CC2)c2nonc12 [compound 159, 4-(4-chlorophenyl)-1-(7-nitro-2,1,3-benzoxadiazol-4-yl)piperidin-4-ol] | 1 to 20 | – | – | – | – |
| COC(=O)c1ccc(NS(=O)(=O)c2ccc(F)c3nonc23)cc1 [compound 167, methyl 4-{[(7-fluoro-2,1,3-benzoxadiazol-4-yl)sulfonyl]amino}benzoate] | ≥ 20 | ≥ 20 | ≥ 20 | 1 to 20 | 1 to 20 |
| N#Cc1cccnc1N1CCN(S(=O)(=O)c2ccc(Cl)c3nonc23)CC1 [compound 170, 2-{4-[(7-chloro-2,1,3-benzoxadiazol-4-yl)sulfonyl]piperazin-1-yl}nicotinomtrile] | 1 to 20 | ≥ 20 | ≥ 20 | 1 to 20 | 1 to 20 |
| O=S(=O)(Oc1ccc(N2CCN(S(=O)(=O)c3ccc(Cl)c4nonc34)CC2)cc1)c1ccc(Cl)c2nonc12 [compound 171, 4-{4-[(7-chloro-2,1,3-benzoxadiazol-4-yl)sulfonyl]piperazin-1-yl}phenyl 7-chloro-2,1,3-benzoxadiazole-4-sulfonate] | 1 to 20 | ≥ 20 | ≥ 20 | ≥ 20 | 1 to 20 |
| O=S(=O)(c1ccc(Sc2cccc3cccnc23)c2nonc12)N1CCN(c2ncc(C(F)(F)F)cc2Cl)CC1 [compound 177, 8-{[7-({4-[3-chloro-5-(trifluoromethyl)pyridin-2-yl]piperazin-1-yl}sulfonyl)-2,1,3-benzoxadiazol-4-yl]thio}quinoline] | 1 to 20 | ≥ 20 | ≥ 20 | ≥ 20 | ≥ 20 |
| COC(=O)c1ccc(NS(=O)(=O)c2c(Cl)ccc3nonc23)cc1 [compound 178, methyl 4-{[(5-chloro-2,1,3-benzoxadiazol-4-yl)sulfonyl]amino}benzoate] | ≥ 20 | ≥ 20 | < 1 | 1 to 20 | 1 to 20 |
| O=S(=O)(c1c(Cl)ccc2nonc12)N1CCN(c2ncc(C(F)(F)F)cc2Cl)CC1 [compound 179, 5-chloro-4-({4-[3-chloro-5-(trifluoromethyl)pyridin-2-yl]piperazin-1-yl}sulfonyl)-2,1,3-benzoxadiazole] | 1 to 20 | 1 to 20 | < 1 | 1 to 20 | 1 to 20 |
| N#Cc1ccccc1N1CCN(S(=O)(=O)c2c(Cl)ccc3nonc23)CC1 [compound 180, 2-{4-[(5-chloro-2,1,3-benzoxadiazol-4-yl)sulfonyl]piperazin-1-yl}benzonitrile] | ≥ 20 | ≥ 20 | ≥ 20 | 1 to 20 | 1 to 20 |
| O=S(=O)(c1c(N2CCN(c3ccc(Cl)c(C(F)(F)F)c3)CC2)ccc2nonc12)N1CCN(c2ccc(Cl)c(C(F)(F)F)c2)CC1 [compound 181, 5-{4-[4-chloro-3-(trifluoromethyl)phenyl]piperazin-1-yl}-4-({4-[4-chloro-3-(trifluoromethyl)phenyl]piperazin-1-yl}sulfonyl)-2,1,3-benzoxadiazole] | 1 to 20 | 1 to 20 | ≥ 20 | ≥ 20 | ≥ 20 |
| O=[N+]([O-])c1ccc(N2CCN(c3ncc(C(F)(F)F)cc3Cl)CC2)c2nonc12 [compound 315, 4-{4-[3-chloro-5-(trifluoromethyl)pyrindin-2-yl]piperazin-1-yl}-7-nitro-2,1,3-benzoxadiazole] | < 1 | – | – | – | – |

From US20050282818A1, “Ubiquitin ligase inhibitors” (Rigel Pharmaceuticals, Inc., priority 2004, published 2005)
